Source: US4162316A (priority 1975, dated 1979)

Each compound was assayed on male guinea-pigs (assay: animal or person). Settings: Cavia porcellus, ip, 2 h, read-out: Antitussive activity ED50-value (i.p.).
Type: in vivo
For `COc1ccccc1N1CCN(C(Cc2cccc(C)c2)c2ccccc2)CC1` (racemic) [Compound 31, dl-1-(2-Methoxyphenyl)-4-[1-phenyl-2-(3-tolyl)ethyl]-piperazine], the ED50 was roughly 6 mg/kg.
`COc1ccccc1N1CCN(C(Cc2cccc(C)c2)c2ccccc2)CC1` (stereo not drawn) [Compound 32, l-1-(2-Methoxyphenyl)-4-[1-phenyl-2-(3-tolyl)ethyl]piperazine] gave an ED50 of roughly 6 mg/kg.
In the case of `COc1ccc2c3c1O[C@H]1[C@@H](O)C=C[C@H]4[C@@H](C2)N(C)CC[C@@]341` [L, Codeine phosphate, reference compound], the ED50 is reported as 12.2 mg/kg.
